How the values were obtained:
[1] = system: HepG2 cells; assay: Cellular uptake of FITC-labeled peptides, fluorescence microscopy and lysate fluorescence quantification; type: cell-based, human
Description: (§1) All cells (thawed cells were passaged less than 5 times) were suspended in 0.5 ml media and cultured in a 24-well plate at a concentration of 1.6 × 10^5 cells per well overnight. […] After incubation, the cells were washed with PBS three times and then imaged by fluorescence microscopy with 20 times lens (Nikon, Tokyo, Japan).
(§2) To determine the penetration efficiency of CPP, the cellular uptake of the indicated concentration of CPP was quantified by multimode spectrophotometry Peptide incubation. The washing step was the same as above, followed by cell lysate collection with 0.3 ml/well-lysing buffer (0.1 M NaOH) for 10 minutes, and then serially centrifuged at 110 g for 5 minutes. A plate-reader spectrophotometer (Tecan, Mannedorf, Switzerland) was used to quantify the fluorescence intensity of each well’s supernatant at the wavelengths of 485 nm in excitation and 535 nm in emission. The protein concentration of supernatant measured by Bradford assay was used to normalize fluorescence intensity. The fluorescence of cellular uptake was expressed as intensity per mg of total cellular protein. Experiments of quantification indicated in this paper were repeated at least three times.

[2] = system: cells; assay: Cellular uptake of FITC-labeled peptides: comparison of CPPs, temperature and inhibitors (cell line not stated); type: cell-based; details: 1 h
Description: as §1, §2

[3] = Peptide aggregation assay by native PAGE; type: physicochemical; details: 4 µl peptide 500 µM in PBS, 6.5% native PAGE; Figure S5(B)
[4] = system: mouse erythrocytes
Description: Mouse erythrocytes free of plasma components were isolated and purified from mouse blood by centrifugation and wash. […] A value of 100% cell lysis was measured by the incubation of erythrocytes incubated with 0.1% Triton X-100.

FITC-(Acp)-RKRRQTSMTDFYHSKRRLIFSKRK [P2]
Fluorescence microscopy and normalized fluorescence intensity versus incubation time [1]: significantly increased with incubation time | Penetrating efficiency at different temperature ([2]; FITC-P2 5 µM, different temperature, 3 replications, Figure 5(A,B)): temperature dependent | Penetration efficiency in the presence of endocytosis-related inhibitors ([2]; FITC-P2 5 µM, NaN3, NH4Cl, Heparin, Serum, MβCD, Wortmannin, hyperosmotic sucrose, Chlorpromazine, EIPA, 3 replications, Figure 5(C,D)): significantly decrease | Penetration in the presence of wortmannin and hyperosmotic sucrose ([2]; FITC-P2 5 µM, wortmannin and hyperosmotic sucrose, Figure 5(C,D)): slightly blocked | Penetration efficiency compared with well-known CPPs ([2]; FITC-labeled peptides 5 µM, microscopy and fluorescence intensity normalized to protein, 3 replications, Figure 4(C,D)): higher penetration efficiency than MT23 but lower than TAT and hPP10 and Dot1l | Aggregation propensity by native PAGE [3]: a single band of P2 and without apparent aggregation | Red blood cell membrane damage (hemolysis) [4]: did not observe red blood cell membrane damage
